We go through 25 compounds from patent US10035771B2 (priority 2013, dated 2018).

The inhibition is the change of the read-out against control, counted positive when it falls.

Assay [1] has as its target type A botulinum toxin light chain (BoNT/A-LC) (Clostridium botulinum, UniProt P0DPI1). In words: biochemical. To be noted: read-out: Inhibition rate %.
The target of assay [2] is type B botulinum toxin light chain (BoNT/B-LC) (Clostridium botulinum, UniProt P10844). In words: biochemical. To be noted: read-out: Inhibition rate %.
In assay [3] the target is type E botulinum toxin light chain (BoNT/E-LC) (Clostridium botulinum, UniProt Q00496). As to the kind of experiment: biochemical. To be noted: read-out: Inhibition rate %.
The target in assay [4] is BoNT/F-LC (Clostridium botulinum, UniProt A7GBG3). As to the kind of experiment: biochemical. To be noted: read-out: Inhibition rate %.
The target of assay [5] is tetanus toxin light chain (TeNt-LC) (Clostridium tetani, UniProt P04958). As to the kind of experiment: biochemical. To be noted: read-out: Inhibition rate %.
Assay [6] deals with type B botulinum toxin (BoNT/B) (Clostridium botulinum, UniProt P10844). Further details: species or system Balb/c mice. To be noted: mouse, in vivo, ip.
Sequence of type B botulinum toxin (BoNT/B) (P10844 2-441 limits assumed): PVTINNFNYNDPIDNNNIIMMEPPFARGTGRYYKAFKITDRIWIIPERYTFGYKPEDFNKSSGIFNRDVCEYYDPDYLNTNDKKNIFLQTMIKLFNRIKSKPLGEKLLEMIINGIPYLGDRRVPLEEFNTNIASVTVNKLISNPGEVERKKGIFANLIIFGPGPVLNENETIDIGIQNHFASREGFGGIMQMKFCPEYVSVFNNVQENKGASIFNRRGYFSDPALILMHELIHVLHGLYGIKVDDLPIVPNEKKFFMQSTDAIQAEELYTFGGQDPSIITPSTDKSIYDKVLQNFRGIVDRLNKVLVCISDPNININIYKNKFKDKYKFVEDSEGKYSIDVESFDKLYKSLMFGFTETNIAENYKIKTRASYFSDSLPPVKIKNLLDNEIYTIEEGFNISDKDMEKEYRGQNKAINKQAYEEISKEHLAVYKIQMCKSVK
Sequence of type B botulinum toxin (BoNT/B) (P10844 442-1291 limits assumed): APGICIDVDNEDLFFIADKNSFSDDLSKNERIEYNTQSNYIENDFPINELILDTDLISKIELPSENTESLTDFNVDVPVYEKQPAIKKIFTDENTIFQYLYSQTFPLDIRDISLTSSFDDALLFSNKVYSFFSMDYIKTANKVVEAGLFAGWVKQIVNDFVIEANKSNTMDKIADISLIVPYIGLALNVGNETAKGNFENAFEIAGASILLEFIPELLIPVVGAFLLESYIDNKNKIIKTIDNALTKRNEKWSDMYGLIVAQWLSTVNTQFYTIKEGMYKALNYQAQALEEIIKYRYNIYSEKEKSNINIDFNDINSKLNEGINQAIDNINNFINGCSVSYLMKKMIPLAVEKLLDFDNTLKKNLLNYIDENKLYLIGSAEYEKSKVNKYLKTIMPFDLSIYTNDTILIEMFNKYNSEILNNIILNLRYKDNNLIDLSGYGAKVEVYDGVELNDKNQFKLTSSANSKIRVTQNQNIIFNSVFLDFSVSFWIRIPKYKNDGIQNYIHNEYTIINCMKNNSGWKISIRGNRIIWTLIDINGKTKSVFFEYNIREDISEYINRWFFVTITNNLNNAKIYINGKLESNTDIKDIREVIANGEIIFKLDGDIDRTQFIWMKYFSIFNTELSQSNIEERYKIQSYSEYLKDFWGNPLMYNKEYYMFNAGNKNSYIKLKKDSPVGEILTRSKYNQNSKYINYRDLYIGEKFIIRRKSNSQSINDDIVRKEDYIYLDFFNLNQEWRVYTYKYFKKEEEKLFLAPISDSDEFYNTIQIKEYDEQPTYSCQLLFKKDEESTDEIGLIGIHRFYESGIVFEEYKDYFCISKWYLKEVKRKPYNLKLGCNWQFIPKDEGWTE

Sequence of tetanus toxin light chain (TeNt-LC) (P04958 2-457 limits assumed): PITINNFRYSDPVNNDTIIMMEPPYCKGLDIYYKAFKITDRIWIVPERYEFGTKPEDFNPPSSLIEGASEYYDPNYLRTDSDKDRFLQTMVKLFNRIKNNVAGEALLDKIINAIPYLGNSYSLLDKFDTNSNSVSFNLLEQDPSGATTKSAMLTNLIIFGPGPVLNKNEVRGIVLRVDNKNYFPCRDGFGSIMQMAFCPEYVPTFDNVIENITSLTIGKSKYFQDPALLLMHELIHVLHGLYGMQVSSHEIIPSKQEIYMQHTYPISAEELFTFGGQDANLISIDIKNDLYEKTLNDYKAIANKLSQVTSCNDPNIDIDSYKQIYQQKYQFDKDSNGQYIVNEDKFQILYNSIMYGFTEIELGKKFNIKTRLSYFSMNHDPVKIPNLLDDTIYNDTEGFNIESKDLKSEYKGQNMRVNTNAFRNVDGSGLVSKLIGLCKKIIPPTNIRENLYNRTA
Sequence of type E botulinum toxin light chain (BoNT/E-LC) (Q00496 2-422 limits assumed): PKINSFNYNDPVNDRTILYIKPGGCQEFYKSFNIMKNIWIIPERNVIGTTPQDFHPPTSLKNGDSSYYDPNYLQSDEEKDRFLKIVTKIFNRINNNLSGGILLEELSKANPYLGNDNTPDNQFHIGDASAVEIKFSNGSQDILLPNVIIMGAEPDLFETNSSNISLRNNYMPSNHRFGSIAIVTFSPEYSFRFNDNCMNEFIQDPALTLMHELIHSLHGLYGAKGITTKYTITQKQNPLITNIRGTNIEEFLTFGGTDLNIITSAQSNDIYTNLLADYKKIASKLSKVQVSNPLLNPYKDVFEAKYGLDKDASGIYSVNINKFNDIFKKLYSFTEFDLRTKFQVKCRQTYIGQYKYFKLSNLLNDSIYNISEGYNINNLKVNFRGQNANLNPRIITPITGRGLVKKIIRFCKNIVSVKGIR
Sequence of BoNT/F-LC (A7GBG3 1-436 limits assumed): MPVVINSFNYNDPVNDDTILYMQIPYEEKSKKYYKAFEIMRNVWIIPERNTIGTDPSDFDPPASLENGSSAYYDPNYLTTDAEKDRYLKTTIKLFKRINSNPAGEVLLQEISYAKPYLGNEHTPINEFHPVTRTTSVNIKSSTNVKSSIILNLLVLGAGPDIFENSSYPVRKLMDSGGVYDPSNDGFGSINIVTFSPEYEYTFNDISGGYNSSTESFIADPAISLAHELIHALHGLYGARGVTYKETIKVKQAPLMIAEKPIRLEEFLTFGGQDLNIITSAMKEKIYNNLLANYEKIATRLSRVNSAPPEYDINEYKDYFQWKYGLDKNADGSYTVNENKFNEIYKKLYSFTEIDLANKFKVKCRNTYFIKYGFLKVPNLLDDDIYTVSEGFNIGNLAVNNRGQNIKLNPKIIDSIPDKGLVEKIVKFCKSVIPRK
Sequence of type A botulinum toxin light chain (BoNT/A-LC) (P0DPI1 2-448 limits assumed): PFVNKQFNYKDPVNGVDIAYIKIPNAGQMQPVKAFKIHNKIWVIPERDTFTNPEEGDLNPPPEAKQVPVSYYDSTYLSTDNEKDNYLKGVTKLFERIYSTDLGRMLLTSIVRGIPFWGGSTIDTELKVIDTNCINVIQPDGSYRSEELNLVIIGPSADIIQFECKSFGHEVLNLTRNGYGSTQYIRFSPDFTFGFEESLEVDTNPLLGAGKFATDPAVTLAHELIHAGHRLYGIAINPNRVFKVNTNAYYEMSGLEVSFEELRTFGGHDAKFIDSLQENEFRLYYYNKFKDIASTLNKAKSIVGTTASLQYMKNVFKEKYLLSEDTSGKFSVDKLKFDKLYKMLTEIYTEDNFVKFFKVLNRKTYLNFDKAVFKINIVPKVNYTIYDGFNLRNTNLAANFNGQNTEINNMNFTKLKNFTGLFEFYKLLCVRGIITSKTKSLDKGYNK
Sequence of type B botulinum toxin light chain (BoNT/B-LC) (P10844 2-441 limits assumed): as the sequence (P10844 2-441 limits assumed) above

With `O=C(CSc1ncccc1C(=O)O)Nc1ccccc1` [Example 17, 2-(anilino-2-acetylthio)nicotinic Acid], the inhibition at 100 µg/mL in assay [1] turned out to be 15.4%; in assay [2], 3.7%; in assay [3], 18%; in assay [4] it was 8.3%. Moreover, the inhibition at 200 µg/mL in assay [5] was 6.4%.
The matching figures for `O=C(CSc1ncccc1C(=O)[O-])Nc1ccc(OC(F)(F)F)cc1.[K+]` [Example 21, potassium]: 14.3%, 28%, 20.3%, 16.5% and 17.4%.
The matching figures for `COc1ccc(Cl)c(NC(=O)CSc2ncccc2C(=O)[O-])c1.[K+]` [Example 14, potassium]: 19.8%, 24.2%, 13.5%, 9.8% and 12.3%.
Regarding `O=C(CSc1ncccc1C(=O)[O-])Nc1cccc(Cl)c1.[K+]` [Example 20], the “% survival” value in assay [6] worked out at 0%.
Consider `CCCOc1ccc(Cl)cc1NC(=O)CSc1ncccc1C(=O)O` [Example 7], for which the inhibition at 100 µg/mL in assay [1] came to 18.1%; in assay [2], 24.2%; in assay [3], 14%; in assay [4], 11.3%. Also, the inhibition at 200 µg/mL in assay [5] came to 20%.
The matching figures for `O=C(CSc1ncccc1C(=O)O)Nc1cc(F)ccc1F` [Example 22, potassium]: 3.2%, 2.7%, 2.1%, 3.4% and 4.4%.
On the same counts, the results for `O=C(CSc1ncccc1C(=O)[O-])Nc1cc(Cl)ccc1OCc1ccccc1.[K+]` [Example 23, sodium] are 78%, 55.7%, 50.7%, 35.8% and 30.3%.
The matching figures for `O=C(CSc1ncccc1C(=O)[O-])Nc1cccc(Cl)c1.[K+]` [Example 20, potassium]: 6.8%, 41%, 4.2%, 17.8% and 22.2%.
`O=C(CSc1ncccc1C(=O)[O-])Nc1cc(OC(F)(F)F)ccc1Br.[K+]` [Example 26, potassium]: the inhibition at 100 µg/mL in assay [1] came to 27.4%; in assay [2], 30%; in assay [3], 12.1%; in assay [4], 13.1%. Further, in assay [5], the inhibition at 200 µg/mL is 17.1%.
On the same counts, the results for `CCOc1ccc(Cl)cc1NC(=O)CSc1ncccc1C(=O)O` [Example 6] are 14.7%, 8.6%, 16.8%, 6.7% and 4.7%.
On to `CCOc1ccccc1NC(=O)CSc1ncccc1C(=O)O` [Example 5], for which the inhibition at 100 µg/mL in assay [1] is 2.7%; in assay [2] it was 4.3%; in assay [3], 6.8%; in assay [4], 5%. Besides, the inhibition at 200 µg/mL in assay [5] is 8%.
The matching figures for `COc1ccc(Cl)cc1NC(=O)CSc1ncccc1C(=O)O` [Example 2]: 12.1%, 20.5%, 11.6%, 13.2% and 12.3%.
As to `O=C(CSc1ncccc1C(=O)[O-])Nc1ccccc1OC(F)(F)F.[K+]` [Example 24, potassium], the inhibition at 100 µg/mL is 8.9% in assay [1], 29.3% in assay [2], 5.6% in assay [3] and 11.2% in assay [4]. In addition, the inhibition at 200 µg/mL in assay [5] amounted to 13.2%.
Take `COc1ccc(Cl)cc1NC(=O)CSc1cc(C(=O)[O-])ccn1.[K+]` [Example 15, potassium]: the inhibition at 100 µg/mL in assay [1] is 3%; in assay [2], 19.4%; in assay [3], 16.3%; in assay [4] it was 7.2%. Moreover, in assay [5], the inhibition at 200 µg/mL came out at 23.5%.
On the same counts, the results for `O=C(CSc1ncccc1C(=O)[O-])Nc1ccc(Br)cc1.[K+]` [Example 12, potassium] are 9.4%, 29.1%, 12.3%, 13.2% and 16.4%.
On to `COc1ccc(F)cc1NC(=O)CSc1ncccc1C(=O)O` [Example 13, potassium], for which the inhibition at 100 µg/mL in assay [1] was 20.3%; in assay [2] it was 22%; in assay [3], 18.3%; in assay [4] it was 16.4%. Also, the inhibition at 200 µg/mL in assay [5] amounted to 14.6%.
On the same counts, the results for `COc1ccc(OC)c(NC(=O)CSc2ncccc2C(=O)O)c1` [Example 16, potassium] are 17.9%, 20.1%, 5.2%, 9.8% and 16.2%.
Regarding `O=C(CSc1ncccc1C(=O)[O-])Nc1ccc(Br)cc1.[K+]` [Example 12], in assay [6], the “% survival” value turned out to be 80%.
The same measure, in the same setting: to `O=C(CSc1ncccc1C(=O)[O-])Nc1cc(OC(F)(F)F)ccc1Br.[K+]` [Example 26] belongs 20%; to `O=C(CSc1ncccc1C(=O)[O-])Nc1ccccc1OC(F)(F)F.[K+]` [Example 24], 80%.
With `O=C(CSc1ncccc1C(=O)[O-])Nc1ccccc1Cl.[K+]` [Example 8, potassium], the inhibition at 100 µg/mL in assay [1] was determined as 25.1%; in assay [2] it was 35%; in assay [3], 27.6%; in assay [4], 15.3%. Besides, in assay [5], the inhibition at 200 µg/mL stood at 21.1%.
Take `O=C(CSc1ncccc1C(=O)[O-])Nc1cc(Br)ccc1Br.[K+]` [Example 9, potassium]: the inhibition at 100 µg/mL is 9.3% in assay [1], 29.2% in assay [2], 8.2% in assay [3] and 12.1% in assay [4]. Besides, the inhibition at 200 µg/mL in assay [5] was determined as 15.2%.
The matching figures for `O=C(CSc1ncccc1C(=O)O)Nc1cccc(OC(F)(F)F)c1` [Example 25, potassium]: 2.9%, 15.2%, 4.3%, 3% and 5.7%.
In the case of `O=C(CSc1ncccc1C(=O)[O-])Nc1cc(Br)ccc1Br.[K+]` [Example 9], in assay [6], the “% survival” value is listed as 20%.
Regarding `O=C(CSc1ncccc1C(=O)O)Nc1ccc(F)cc1` [Example 19, potassium], the inhibition at 100 µg/mL in assay [1] worked out at 3%; in assay [2], 3%; in assay [3] it was 6.8%; in assay [4], 4%. Besides, in assay [5], the inhibition at 200 µg/mL came to 2.7%.
